{"source": "paper PMC4842970", "about": "“Bioactivity Focus of α-Cyano-4-hydroxycinnamic acid (CHCA) Leads to Effective Multifunctional Aldose Reductase Inhibitors” (Scientific Reports, 2016)", "key": {"[1]": {"test": "Stability in DMEM containing 5% FBS (RP-HPLC)", "assay_type": "in vitro ADME", "details": "37 °C, 12 h incubation", "experimental": "Predicted from its structure, the stability of 5f will be good and the toxicity will be low. […] After 12 h incubation, 86% of 5f remained intact.\nThe sample was incubated in high-glucose Dulbecco’s modified Eagle’s medium (DMEM) containing 5% fetal calf serum (FBS) for a period of 48 h. Analyses were scheduled at 0.5, 1.0, 4.0, 8.0, 12.0, 24.0, and 48.0 h. Reverse-phase high performance liquid chromatography (RP-HPLC) was performed on a Cosmosil column (C18, […], 4.6 × 250 mm) using an LC-100 fluid unit (Shanghai Wufeng Inc., China) with a tunable LC-100 UV detector. The eluent was various percentages of methanol containing pure water (flow rate: 1.0 ml/min; λ: 254 nm). The experiments were repeated at least 3 times and compared with the control experiment. The results were shown in Supporting Infromation."}, "ALR1": {"target": "T1, ALR1 (Gallus gallus, UniProt Q5ZK84)", "T1 construct": "Embryos on EDD 5 were homogenized with chicken saline and centrifuged; from tissue; host or cells: EDD 5 chick (leghorn) embryo homogenate supernatant", "T1 sequence (Q5ZK84 1-327)": "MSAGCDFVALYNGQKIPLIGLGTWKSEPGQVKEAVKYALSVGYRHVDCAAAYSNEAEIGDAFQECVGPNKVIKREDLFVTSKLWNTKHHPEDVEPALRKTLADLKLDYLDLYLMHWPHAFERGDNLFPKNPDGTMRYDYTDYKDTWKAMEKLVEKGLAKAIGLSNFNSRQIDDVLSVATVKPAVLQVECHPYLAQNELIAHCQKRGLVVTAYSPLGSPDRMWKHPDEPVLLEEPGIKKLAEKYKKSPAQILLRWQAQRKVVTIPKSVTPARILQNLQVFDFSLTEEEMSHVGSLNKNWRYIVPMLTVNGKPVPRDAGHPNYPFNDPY", "test": "ALR1 activity in glucose-treated embryos (chicken ALR1 ELISA kit)", "assay_type": "in vivo", "details": "glucose-treated chick embryos, EDD 5, compared with the model group", "experimental": "(§1) Embryos on EDD 5 were homogenized with chicken saline and centrifuged (4 °C, 10000 rpm, 10 min). The supernatant was used for measuring ALR1 activity in the sample. A chicken ALR1 ELISA kit (Jianglai Biotechnology, China) were used for detection. The concentration of ALR1 in the samples was then determined by comparing the OD of the samples to the standard curve."}, "chick embryo": {"test_system": "chick embryo", "test": "Chick embryo model of hyperglycemia: mortality, NTD rate, body weight", "assay_type": "in vivo", "details": "glucose 0.4 mmol/egg", "experimental": "In order to evaluate further the potential of 5f as an agent to treat diseases caused by high glucose inside the system, a chick embryo model of treatment with high glucose was set up.\nFertilized leghorn eggs were purchased from the Avian Farm of the South China Agriculture University (Guangzhou, China). Before the injection of glucose (Sigma–Aldrich, MO, USA), the eggs were incubated in a humidified incubator (Grumbach, Germany) at 37 °C with 60% humidity until the embryos reached the desired stage. […] Glucose was dissolved in 200 μL chicken saline and injected on EDD 1. Mortality, abnormality and body weight measurements were made on EDD 5. Embryos were removed from their eggs and weighed. The percent mortality was measured by counting the number of dead versus all embryos. The rate of NTD of the embryos was assessed by the number of NTD versus survival embryos."}, "ALR2": {"test_system": "ALR2", "test": "AR (ALR2) activity in glucose-treated embryos (chicken AR ELISA kit)", "assay_type": "in vivo", "details": "glucose-treated chick embryos, EDD 5, dose 1 μM", "experimental": "As expected, treatment of 5f decreased ALR2 activity in a dose-dependent manner. […] However, EDA, which is a clinical radical scavenger, was shown no effect on the inhibition of ALR2.\nas §1, with “AR” for “ALR1”, “curve. The sorbitol contents of the chick embryo were determined by a Sorbitol Colorimetric Assay Kit (BioVision, USA). In the assay, sorbitol is oxidized to fructose with the proportional development of intense color with an absorbance maximum at 560 nm.” for “curve.”"}}, "data": [{"smiles": "CC(=O)N[C@H](COCc1ccccc1)C(=O)NCCCNC(=O)/C(C#N)=C/c1ccc(O)cc1", "note": "[Compound 5f, (R,E) - N - (3-(2-acetamido-3-(benzyloxy)propanamido)propyl)-2-cyano-3-(4-hydroxyphenyl)acrylamide]", "values": [{"measurement": "remained intact", "setting": "[1]", "result": 86, "unit": "%"}, {"measurement": "ALR1 level in embryo", "setting": "ALR1", "result": "no obvious change"}, {"measurement": "Body weight", "setting": "chick embryo; EDD 5, dose 10 nM (CL)", "result": "291.3 ± 10.2", "unit": "mg"}, {"measurement": "Death (/n)", "setting": "chick embryo; EDD 5, dose 10 nM (CL)", "result": 35.0, "unit": "%"}, {"measurement": "NTD (/survival)", "setting": "chick embryo; EDD 5, dose 10 nM (CL)", "result": 46.20, "unit": "%"}, {"measurement": "Body weight", "setting": "chick embryo; EDD 5, dose 100 nM (CM)", "result": "295.9 ± 13.2", "unit": "mg"}, {"measurement": "Death (/n)", "setting": "chick embryo; EDD 5, dose 100 nM (CM)", "result": 30.0, "unit": "%"}, {"measurement": "NTD (/survival)", "setting": "chick embryo; EDD 5, dose 100 nM (CM)", "result": 35.7, "unit": "%"}, {"measurement": "Body weight", "setting": "chick embryo; EDD 5, dose 1 μM", "result": "307.9 ± 10.5", "unit": "mg"}, {"measurement": "Death (/n)", "setting": "chick embryo; EDD 5, dose 1 μM", "result": 25.0, "unit": "%"}, {"measurement": "NTD (/survival)", "setting": "chick embryo; EDD 5, dose 1 μM", "result": 20.0, "unit": "%"}, {"measurement": "ALR2 activity in embryo", "setting": "ALR2", "result": "close to that of the control"}]}]}
